# From patent US8680052B1, “Methods of treating, reducing the incidence of, and/or preventing ischemic events” (The Medicines Company, priority 2013, dated 2014)
# Where two headings read alike, the source gives them in different places.
# Key:
# [1] = tested on: patients with atherosclerosis undergoing PCI; type: in vivo; settings: for Agitation (Psychiatric disorders) / Chest Pain (General disorders and administration site conditions) / Diarrhea (Gastrointestinal disorders) / Dyspnea (Respiratory, thoracic, and mediastinal disorders) / Procedural Pain (Injury, poisoning, and procedural complications): treatment emergent adverse event
# Method: The primary safety end point was severe bleeding not related to coronary-artery bypass grafting, according to the Global Use of Strategies to Open Occluded Coronary Arteries (GUSTO) criteria, at 48 hours. Several other bleeding definitions were also applied.
# platelets = test: Example 4: light transmission aggregometry (LTA) induced by 5 and 20 μM ADP; type: in vivo, human
# Method: The study involved 12 patients who met the criteria of being 18-75 years of age, having coronary artery disease (CAD) documented by a previous MI or coronary revascularization, and taking 81 mg of aspirin daily. […] Prohibited concomitant medications included strong and potent CYP3A inhibitors, simvastatin and lovastatin at doses more than 40 mg/day, omeprazole or esomeprazole, and digoxin. Use of non-steroidal anti-inflammatory agents was discouraged during study participation but not prohibited.
# Each patient was administered a 30 μg/kg bolus of cangrelor followed immediately by a 2 hr infusion at a rate of 4.0 μg/kg/min. A loading dose of ticagrelor (180 mg) was given after 0.5 hr or 1.25 hr (n=6 for each). Blood for pharmacodynamic platelet function studies was taken after 0.5 or 1.25 hr (corresponding to the time of ticagrelor load, n=6 for each), and then at 1.75, 2, 2.25, 2.5, 2.75, 3, 4, and 5.25 hr. Patients were assigned randomly to receive either 6 (n=6) or 7 (n=6) doses of ticagrelor to be taken every 12 hours following the discontinuation of the infusion of cangrelor. On study day 5, each patient was administered a 30 μg/kg bolus of cangrelor followed immediately by a 2 hr infusion at a rate of 4.0 μg/kg/min. Blood for pharmacodynamic assessment was taken after 1 and 2 hr. Adverse events were queried throughout study participation that ended with a telephone interview performed on study day 10-12.
# Pharmacodynamic assessment included light transmission aggregometry (LTA), VerifyNow® P2Y12 assay, vasodilator-stimulated phosphoprotein (VASP) index, and platelet activation measured with the use of flow cytometry. Assessment of LTA, VerifyNow®, and platelet activation with the use of flow cytometry was performed within 30 min of blood being taken. In the case of flow cytometry, samples were processed to fixation and then batched for analysis. For VASP, index samples were batched and processed as recommended by the vendor within 2 h of blood being taken. This approach limited the time from fixation of VASP index to flow analysis to less than 1 h.
# LTA induced by 5 μM and 20 μM adenosine diphosphate (ADP) was quantified ex vivo (i.e. in non-adjusted platelet rich plasma). Platelet-poor plasma was set as 100% aggregation, and both maximal (peak) and terminal (at 300 s) aggregation were measured with a PAP4 aggregometer (BioData, Horsham, Pa.). VerifyNow® P2Y12 assay (Accumetrics Inc, San Diego, Calif.) that measures the effects of drugs on the P2Y12 receptor by activating platelets with prostaglandin El in addition to ADP was used in accordance with the instructions provided by the manufacturer. Platelet reactivity was expressed in P2Y12 reaction units (PRU). Activation of platelets was identified with the use of flow cytometry as previously described.^17. And to determine the VASP index, a commercially available kit (Diagnostica Stago, Inc, Parsippany NJ) was used. ^17 Schneider D J, Sobel B E. Streamlining the design of promising clinical trials: in-vitro testing of antithrombotic regimens and multiple agonists of platelet activation. Coron Artery Dis. 2009; 20:175-8.
# [2] = 48 hours, Non-CABG Related Bleeding, Safety, Cangrelor vs Clopidogrel
# [3] = 48 hours, Non-CABG Related Bleeding, Safety, n/N
# [4] = 48 hours, Non-CABG Related Bleeding, Safety, rate in parentheses
# [5] = 48 hours, Non-CABG Related, Safety, Cangrelor vs Clopidogrel
# [6] = 48 hours, Non-CABG Related, Safety, n/N
# [7] = 48 hours, Non-CABG Related, Safety, rate in parentheses
# [8] = 48 hours, non-CABG-related, safety population, Cangrelor vs Clopidogrel
# [9] = 48 hours, safety population, n/N
# [10] = Study Day 1, 1.75 h, Ticagrelor at 0.5 hr
# [11] = Study Day 1, 1.75 h, Ticagrelor at 1.25 hr
# [12] = Study Day 1, 2.0 h, Ticagrelor at 0.5 hr
# [13] = Study Day 1, 2.0 h, Ticagrelor at 1.25 hr
# [14] = Study Day 1, reference 0.5/1.25 h, All
# [15] = Study Day 1, reference 0.5/1.25 h, Ticagrelor at 0.5 hr
# [16] = Study Day 1, reference 0.5/1.25 h, Ticagrelor at 1.25 hr
# [17] = Study Day 5, 1.0 h, Ticagrelor 6 doses
# [18] = Study Day 5, 1.0 h, Ticagrelor 7 doses
# [19] = Study Day 5, 2.0 h, Ticagrelor 6 doses
# [20] = Study Day 5, 2.0 h, Ticagrelor 7 doses
structure (smiles),measurement,setting,value
"CSCCNc1nc(SCCC(F)(F)F)nc2c1ncn2[C@@H]1O[C@H](COP(=O)(O)OP(=O)(O)C(Cl)(Cl)P(=O)(O)O)[C@@H](O)[C@H]1O [Cangrelor, cangrelor]",rate of GUSTO-defined severe bleeding (primary safety end point),[1]; 48 hours,0.16%
same,BARC criteria Type 3 OR,[1]; [2],1.69
same,BARC criteria Type 3a OR,[1]; [2],2.75
same,BARC criteria Type 3b OR,[1]; [2],1.12
same,BARC criteria Type 3c OR,[1]; [2],2.00
same,BARC criteria Type 3,[1]; [3],22/5529
same,BARC criteria Type 3a,[1]; [3],11/5529
same,BARC criteria Type 3b,[1]; [3],9/5529
same,BARC criteria Type 3c,[1]; [3],2/5529
same,BARC criteria Type 3,[1]; [4],(0.4)
same,BARC criteria Type 3a,[1]; [4],(0.2)
same,BARC criteria Type 3b,[1]; [4],(0.2)
same,BARC criteria Type 3c,[1]; [4],(0.0)
same,ACUITY criteria Major bleeding OR,[1]; [5],1.72
same,ACUITY criteria Major without ≧ 5 cm hematoma OR,[1]; [5],1.62
same,ACUITY criteria Minor bleeding OR,[1]; [5],1.42
same,ACUITY criteria Major bleeding,[1]; [6],235/5529
same,ACUITY criteria Major without ≧ 5 cm hematoma,[1]; [6],42/5529
same,ACUITY criteria Minor bleeding,[1]; [6],653/5529
same,ACUITY criteria Major bleeding,[1]; [7],(4.3)
same,ACUITY criteria Major without ≧ 5 cm hematoma,[1]; [7],(0.8)
same,ACUITY criteria Minor bleeding,[1]; [7],(11.8)
same,"odds ratio, GUSTO-defined severe bleeding","[1]; 48 hours, cangrelor vs clopidogrel",1.50
same,"GUSTO-defined moderate bleeding, Odds Ratio (95% CI)",[1]; [8],1.69 (0.85-3.37)
same,"GUSTO-defined severe or life-threatening bleeding, Odds Ratio (95% CI)",[1]; [8],1.50 (0.53-4.22)
same,"GUSTO-defined severe or moderate bleeding, Odds Ratio (95% CI)",[1]; [8],1.63 (0.92-2.90)
same,"TIMI-defined major bleeding, Odds Ratio (95% CI)",[1]; [8],1.00 (0.29)-3.45)
same,"TIMI-defined major or minor bleeding, Odds Ratio (95% CI)",[1]; [8],1.75 (0.73-4.18)
same,"TIMI-defined minor bleeding, Odds Ratio (95% CI)",[1]; [8],3.00 (0.81-11.10)
same,"Any blood transfusion, Odds Ratio (95% CI)","[1]; 48 hours, safety population, Cangrelor vs Clopidogrel",1.56 (0.83-2.93)
same,adverse events that led to discontinuation of the study drug,[1]; in vivo,0.5%
same,rate of adverse events related to treatment,[1]; in vivo,20.2%
same,transient dyspnea,[1]; in vivo,1.2%
same,Agitation (Psychiatric disorders),"[1]; 48 hours, safety population",(0.2) %
same,Chest Pain (General disorders and administration site conditions),"[1]; 48 hours, safety population",(1.0) %
same,Diarrhea (Gastrointestinal disorders),"[1]; 48 hours, safety population",(0.3) %
same,"Dyspnea (Respiratory, thoracic, and mediastinal disorders)","[1]; 48 hours, safety population",(1.2) %
same,"Procedural Pain (Injury, poisoning, and procedural complications)","[1]; 48 hours, safety population",(0.1) %
same,Agitation (Psychiatric disorders),[1]; [9],11/5529
same,Chest Pain (General disorders and administration site conditions),[1]; [9],55/5529
same,Diarrhea (Gastrointestinal disorders),[1]; [9],15/5529
same,"Dyspnea (Respiratory, thoracic, and mediastinal disorders)",[1]; [9],64/5529
same,"Procedural Pain (Injury, poisoning, and procedural complications)",[1]; [9],4/5529
same,"IPA, 5 μM ADP, LTA","platelets; Study Day 1, 1.75 h, All",92 ± 5%
same,"IPA, 20 μM ADP, LTA","platelets; Study Day 1, 1.75 h, All",97 ± 2%
same,"PR, 5 μM ADP, LTA","platelets; Study Day 1, 1.75 h, All",3.4 ± 2.2%
same,"PR, 20 μM ADP, LTA","platelets; Study Day 1, 1.75 h, All",2.2 ± 1.4%
same,"IPA, 5 μM ADP, LTA",platelets; [10],92 ± 5%
same,"IPA, 20 μM ADP, LTA",platelets; [10],97 ± 2%
same,"PR, 5 μM ADP, LTA",platelets; [10],4.2 ± 2.4%
same,"PR, 20 μM ADP, LTA",platelets; [10],2.3 ± 1.0%
same,"IPA, 5 μM ADP, LTA",platelets; [11],93 ± 6%
same,"IPA, 20 μM ADP, LTA",platelets; [11],97 ± 3%
same,"PR, 5 μM ADP, LTA",platelets; [11],2.7 ± 1.8%
same,"PR, 20 μM ADP, LTA",platelets; [11],2 ± 1.8%
same,"IPA, 5 μM ADP, LTA","platelets; Study Day 1, 2.0 h, All",92 ± 3%
same,"IPA, 20 μM ADP, LTA","platelets; Study Day 1, 2.0 h, All",97 ± 3%
same,"PR, 5 μM ADP, LTA","platelets; Study Day 1, 2.0 h, All",4.1 ± 2%
same,"PR, 20 μM ADP, LTA","platelets; Study Day 1, 2.0 h, All",2.3 ± 2.2%
same,"IPA, 5 μM ADP, LTA",platelets; [12],91 ± 3%
same,"IPA, 20 μM ADP, LTA",platelets; [12],95 ± 2%
same,"PR, 5 μM ADP, LTA",platelets; [12],4.8 ± 1.9%
same,"PR, 20 μM ADP, LTA",platelets; [12],3.5 ± 1.9%
same,"IPA, 5 μM ADP, LTA",platelets; [13],93 ± 3%
same,"IPA, 20 μM ADP, LTA",platelets; [13],98 ± 3%
same,"PR, 5 μM ADP, LTA",platelets; [13],3.3 ± 2%
same,"PR, 20 μM ADP, LTA",platelets; [13],1.2 ± 1.9%
same,"IPA, 5 μM ADP, LTA",platelets; [14],93 ± 3%
same,"IPA, 20 μM ADP, LTA",platelets; [14],98 ± 2%
same,"PR, 5 μM ADP, LTA",platelets; [14],3.6 ± 1.8%
same,"PR, 20 μM ADP, LTA",platelets; [14],1.7 ± 1.7%
same,"IPA, 5 μM ADP, LTA",platelets; [15],92 ± 4%
same,"IPA, 20 μM ADP, LTA",platelets; [15],97 ± 2%
same,"PR, 5 μM ADP, LTA",platelets; [15],4.2 ± 2.1%
same,"PR, 20 μM ADP, LTA",platelets; [15],2 ± 1.5%
same,"IPA, 5 μM ADP, LTA",platelets; [16],93 ± 2%
same,"IPA, 20 μM ADP, LTA",platelets; [16],98 ± 3%
same,"PR, 5 μM ADP, LTA",platelets; [16],3 ± 1.4%
same,"PR, 20 μM ADP, LTA",platelets; [16],1.3 ± 2.0%
same,"IPA, 5 μM ADP, LTA","platelets; Study Day 5, 1.0 h, All",96 ± 3%
same,"IPA, 20 μM ADP, LTA","platelets; Study Day 5, 1.0 h, All",98 ± 2%
same,"PR, 5 μM ADP, LTA","platelets; Study Day 5, 1.0 h, All",2.1 ± 1.7%
same,"PR, 20 μM ADP, LTA","platelets; Study Day 5, 1.0 h, All",1.5 ± 1.5%
same,"IPA, 5 μM ADP, LTA",platelets; [17],96 ± 4%
same,"IPA, 20 μM ADP, LTA",platelets; [17],98 ± 2%
same,"PR, 5 μM ADP, LTA",platelets; [17],1.5 ± 1.6%
same,"PR, 20 μM ADP, LTA",platelets; [17],1.5 ± 1.6%
same,"IPA, 5 μM ADP, LTA",platelets; [18],96 ± 3%
same,"IPA, 20 μM ADP, LTA",platelets; [18],98 ± 2%
same,"PR, 5 μM ADP, LTA",platelets; [18],2.7 ± 1.6%
same,"PR, 20 μM ADP, LTA",platelets; [18],1.5 ± 1.5%
same,"IPA, 5 μM ADP, LTA","platelets; Study Day 5, 2.0 h, All",96 ± 4%
same,"IPA, 20 μM ADP, LTA","platelets; Study Day 5, 2.0 h, All",98 ± 2%
same,"PR, 5 μM ADP, LTA","platelets; Study Day 5, 2.0 h, All",2.2 ± 2.2%
same,"PR, 20 μM ADP, LTA","platelets; Study Day 5, 2.0 h, All",1.3 ± 1.6%
same,"IPA, 5 μM ADP, LTA",platelets; [19],97 ± 3%
same,"IPA, 20 μM ADP, LTA",platelets; [19],98 ± 1%
same,"PR, 5 μM ADP, LTA",platelets; [19],1.5 ± 1.5%
same,"PR, 20 μM ADP, LTA",platelets; [19],1.2 ± 1.5%
same,"IPA, 5 μM ADP, LTA",platelets; [20],95 ± 5%
same,"IPA, 20 μM ADP, LTA",platelets; [20],98 ± 3%
same,"PR, 5 μM ADP, LTA",platelets; [20],2.8 ± 2.7%
same,"PR, 20 μM ADP, LTA",platelets; [20],1.5 ± 1.9%
same,"residual reactivity, maximal","platelets; combined overall population, 0.5 h after cangrelor was stopped, ticagrelor loaded during infusion",19%
same,residual reactivity,"platelets; combined overall population, end of observation period (5.25 h)",< 5%
